PubChem BioAssay (NCI)
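Each compound was tested at five concentrations against cells in 96-well plates for 48 hours. TGI marks complete inhibition of growth.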

Columns and labels:
Assay in all cases: inhibition of tumour cell growth, NCI panel, 48 h
LOX IMVI melanoma = system: LOX IMVI melanoma
SW-620 colon = system: SW-620 colon
RPMI-8226 leukemia = system: RPMI-8226 leukemia
MDA-N = system: MDA-N
A549 NSCLC = system: A549 NSCLC
UO-31 renal = system: UO-31 renal
MOLT-4 leukemia = system: MOLT-4 leukemia
NCI-H23 lung = system: NCI-H23 lung
KM12 colon = system: KM12 colon
NCI-H522 lung = system: NCI-H522 lung
HL-60(TB) leukemia = system: HL-60(TB) leukemia
SN12C renal = system: SN12C renal
SF-539 CNS = system: SF-539 CNS
SNB-19 CNS = system: SNB-19 CNS
HS 578T breast = system: HS 578T breast
SK-OV-3 ovarian = system: SK-OV-3 ovarian
PC-3 prostate = system: PC-3 prostate
CAKI-1 renal = system: CAKI-1 renal
T-47D breast = system: T-47D breast
OVCAR-5 ovarian = system: OVCAR-5 ovarian
OVCAR-8 ovarian = system: OVCAR-8 ovarian
MALME-3M melanoma = system: MALME-3M melanoma
HOP-62 NSCLC = system: HOP-62 NSCLC
SK-MEL-5 melanoma = system: SK-MEL-5 melanoma
HCT-116 colon = system: HCT-116 colon
EKVX NSCLC = system: EKVX NSCLC
MCF7 breast = system: MCF7 breast
IGROV1 ovarian = system: IGROV1 ovarian
UACC-257 melanoma = system: UACC-257 melanoma
K-562 leukemia = system: K-562 leukemia
ACHN renal = system: ACHN renal
SF-295 CNS = system: SF-295 CNS
CCRF-CEM leukemia = system: CCRF-CEM leukemia
RXF 393 renal = system: RXF 393 renal
HT29 colon = system: HT29 colon
NCI-H460 lung = system: NCI-H460 lung
TK-10 renal = system: TK-10 renal
HCC-2998 colon = system: HCC-2998 colon
BT-549 breast = system: BT-549 breast
SF-268 CNS = system: SF-268 CNS
OVCAR-3 ovarian = system: OVCAR-3 ovarian
MDA-MB-435 = system: MDA-MB-435
SK-MEL-2 melanoma = system: SK-MEL-2 melanoma
NCI/ADR-RES ovarian = system: NCI/ADR-RES ovarian
U251 CNS = system: U251 CNS
COLO 205 colon = system: COLO 205 colon
MDA-MB-231 breast = system: MDA-MB-231 breast
SNB-75 CNS = system: SNB-75 CNS
NCI-H226 lung = system: NCI-H226 lung
UACC-62 melanoma = system: UACC-62 melanoma
M14 melanoma = system: M14 melanoma
SK-MEL-28 melanoma = system: SK-MEL-28 melanoma
786-0 renal = system: 786-0 renal
A498 renal = system: A498 renal
DU-145 prostate = system: DU-145 prostate
HCT-15 colon = system: HCT-15 colon
OVCAR-4 ovarian = system: OVCAR-4 ovarian
SR leukemia = system: SR leukemia

Question: What does the source list for `Cc1cc2c(cc1Cl)SC(NNC(=O)c1ccco1)=NS2(=O)=O`?
Answer: TGI (LOX IMVI melanoma): > 10 µM; TGI (SW-620 colon): > 10 µM; TGI (RPMI-8226 leukemia): > 10 µM; TGI (MDA-N): > 10 µM; TGI (A549 NSCLC): > 10 µM; TGI (UO-31 renal): > 10 µM; TGI (MOLT-4 leukemia): > 10 µM; TGI (NCI-H23 lung): > 10 µM; TGI (KM12 colon): > 10 µM; TGI (NCI-H522 lung): > 10 µM; TGI (HL-60(TB) leukemia): > 10 µM; TGI (SN12C renal): > 10 µM; TGI (SF-539 CNS): > 10 µM; TGI (SNB-19 CNS): > 10 µM; TGI (HS 578T breast): > 10 µM; TGI (SK-OV-3 ovarian): > 10 µM; TGI (PC-3 prostate): > 10 µM; TGI (CAKI-1 renal): > 10 µM; TGI (T-47D breast): > 10 µM; TGI (OVCAR-5 ovarian): > 10 µM; TGI (OVCAR-8 ovarian): > 10 µM; TGI (MALME-3M melanoma): > 10 µM; TGI (HOP-62 NSCLC): > 10 µM; TGI (SK-MEL-5 melanoma): > 10 µM; TGI (HCT-116 colon): > 10 µM; TGI (EKVX NSCLC): > 10 µM; TGI (MCF7 breast): > 10 µM; TGI (IGROV1 ovarian): > 10 µM; TGI (UACC-257 melanoma): > 10 µM; TGI (K-562 leukemia): > 10 µM; TGI (ACHN renal): > 10 µM; TGI (SF-295 CNS): > 10 µM; TGI (CCRF-CEM leukemia): > 10 µM; TGI (RXF 393 renal): > 10 µM; TGI (HT29 colon): > 10 µM; TGI (NCI-H460 lung): > 10 µM; TGI (TK-10 renal): > 10 µM; TGI (HCC-2998 colon): > 10 µM; TGI (BT-549 breast): > 10 µM; TGI (SF-268 CNS): > 10 µM; TGI (OVCAR-3 ovarian): > 10 µM; TGI (MDA-MB-435): > 10 µM; TGI (SK-MEL-2 melanoma): > 10 µM; TGI (NCI/ADR-RES ovarian): > 10 µM; TGI (U251 CNS): > 10 µM; TGI (COLO 205 colon): > 10 µM; TGI (MDA-MB-231 breast): > 10 µM; TGI (SNB-75 CNS): > 10 µM; TGI (NCI-H226 lung): > 10 µM; TGI (UACC-62 melanoma): > 10 µM; TGI (M14 melanoma): > 10 µM; TGI (SK-MEL-28 melanoma): > 10 µM; TGI (786-0 renal): > 10 µM; TGI (A498 renal): > 10 µM; TGI (DU-145 prostate): > 10 µM; TGI (HCT-15 colon): > 10 µM; TGI (OVCAR-4 ovarian): > 10 µM

Question: What does the source list for `CC(C)(C)[Si](C)(C)OCC1OC(n2cnc3c(N)ncnc32)CC1O` (configuration not stated)?
Answer: TGI (LOX IMVI melanoma): > 100 µM; TGI (SW-620 colon): > 100 µM; TGI (RPMI-8226 leukemia): > 100 µM; TGI (MDA-N): > 100 µM; TGI (UO-31 renal): > 100 µM; TGI (MOLT-4 leukemia): > 100 µM; TGI (NCI-H23 lung): > 100 µM; TGI (KM12 colon): > 100 µM; TGI (HL-60(TB) leukemia): > 100 µM; TGI (SN12C renal): > 100 µM; TGI (SNB-19 CNS): > 100 µM; TGI (HS 578T breast): > 100 µM; TGI (SK-OV-3 ovarian): > 100 µM; TGI (PC-3 prostate): > 100 µM; TGI (CAKI-1 renal): > 100 µM; TGI (T-47D breast): > 100 µM; TGI (OVCAR-5 ovarian): > 100 µM; TGI (OVCAR-8 ovarian): > 100 µM; TGI (MALME-3M melanoma): > 100 µM; TGI (HOP-62 NSCLC): > 100 µM; TGI (SK-MEL-5 melanoma): > 100 µM; TGI (HCT-116 colon): > 100 µM; TGI (MCF7 breast): > 100 µM; TGI (IGROV1 ovarian): > 100 µM; TGI (UACC-257 melanoma): > 100 µM; TGI (K-562 leukemia): > 100 µM; TGI (SF-295 CNS): > 100 µM; TGI (CCRF-CEM leukemia): > 100 µM; TGI (RXF 393 renal): > 100 µM; TGI (HT29 colon): > 100 µM; TGI (NCI-H460 lung): > 100 µM; TGI (TK-10 renal): > 100 µM; TGI (BT-549 breast): > 100 µM; TGI (SR leukemia): > 100 µM; TGI (OVCAR-3 ovarian): > 100 µM; TGI (MDA-MB-435): > 100 µM; TGI (SK-MEL-2 melanoma): > 100 µM; TGI (NCI/ADR-RES ovarian): > 100 µM; TGI (U251 CNS): > 100 µM; TGI (COLO 205 colon): > 100 µM; TGI (MDA-MB-231 breast): > 100 µM; TGI (SNB-75 CNS): > 100 µM; TGI (NCI-H226 lung): > 100 µM; TGI (UACC-62 melanoma): > 100 µM; TGI (M14 melanoma): > 100 µM; TGI (SK-MEL-28 melanoma): > 100 µM; TGI (A498 renal): > 100 µM; TGI (DU-145 prostate): > 100 µM; TGI (HCT-15 colon): > 100 µM; TGI (OVCAR-4 ovarian): > 100 µM
